Test results reported in patent publication US20050118116A1, “Dental bleaching product” (UNIVERSITAT DE LES ILLES BALEARS, LABORATORIOS KIN, S.A., priority 1999, published 2005).

Assays:
[1] = speed with which a tetracycline solution is rendered colourless (spectrophotometer, 37° C.); type: biochemical; conditions: no peroxidase; high carbamide peroxide concentrations; FIG. 2
Description: The mouth wash consists of a 2.4% carbamide peroxide solution in 0.1 M phosphate buffer, pH 6.5 and on the other hand, a peroxidase solution (120 units of pyrogallol/ml) in 0.1 M phosphate buffer, pH 6.5 which is fed into the container in which the de-staining reaction is to take place, immediately after the mouth wash.
The substance to be rendered colourless is tetracycline, which is solublised in water at a concentration of 0.015M. The maximum tetracycline absorption wavelength has been selected so as to monitor the de-staining speed. The de-staining speed is determined using a spectrophotometer which allows the absorption to be monitored continually, the reaction tray being thermostated at 37° C. The de-staining reaction speeds have been calculated from the relations between absorbency variation and the reaction time, and they have been expressed in nKat.
The necessary quantities of tetracycline solution, the mouth wash and enzyme (in this order) are placed in the reaction tray to obtain the parameter combinations according to which it is intended to evaluate the enzyme bleaching capacity.

[2] = tooth brightness factor before/after treatment (non-limiting example in the description); conditions: 1.5% carbamide peroxide, pH 6.5 phosphates; peroxidase 20 units pyrogallol/ml where present; 64% before treatment

NC(N)=O.OO [carbamide peroxide]
carbamide peroxide concentration from which de-staining speed saturates [1]: approximately 0.70 M | brightness factor of a tooth after treatment [2]: 64%
